Reference: patent US7169805B2 (Nicox S.A., priority 2003, dated 2007)

Tests used:
SHR rats = experiment: Antihypertensive activity in a genetic model of hypertension (SHR rats), arterial pressure; type: in vivo, rat; conditions: single oral dose 30 mg/Kg; for Arterial pressure (MAP): 4 hours after treatment; for Reduction of blood pressure vs the control: 4 hrs after treatment
Protocol: (§1) SHR rats were treated orally in a single dose of 30 mg/Kg. After 2 hours the animal were anaesthetized with tiopental-Na; a fluid catheter was inserted in a right carotid artery and connected to a transducer for the homodynamic measurements. 4 hours after the treatment the arterial pressure (MAP, mmHg) was measured.

[1] = tested on: isolated rabbit thoracic aorta preparations; experiment: Vasorelaxing activity in isolated rabbit thoracic aorta rings precontracted with noradrenaline; type: cell-based; conditions: for Emax / IC50: Oryctolagus cuniculus, NA (1 μM) precontracted rings with functional endothelium; for Emax: at 100 μM of tested compound, read-out: Emax (maximum efficacy); for IC50: read-out: IC50 (concentration producing 50% of the maximum relaxation)
Protocol: Male New Zealand rabbits were anaesthetized with thiopental-Na (50 mg/kg, iv), sacrificed by exsanguinations and then the thorax was opened and the aorta dissected. Single ring preparations (4 mm in length) of thoracic aorta were set up in physiological salt solution (PSS) at 37° C. in small organ chambers (5 ml). The composition of PSS was (mM): NaCl 130, NaHCO3 14.9, KH2PO4 1.2, MgSO4 1.2, HEPES 10, […] (95% O2/5% CO2; pH 7.4). Each ring was mounted under 2 g passive tension. Isometric tension was recorded with a Grass transducer (Grass FT03) attached to a BIOPAC MP150 System. Preparations were allowed to equilibrate for 1 h, then contracted submaximally with noradrenaline (NA, 1 μM) and, when the contraction was stable, acetylcholine (ACh, 10 μM) was added. A relaxant response to ACh indicated the presence of a functional endothelium. […] When a stable precontraction was reached, a cumulative concentration-response curve for each of the tested compounds was obtained in the presence of a functional endothelium. Time intervals between different concentrations were based on the time needed to reach a full response. Each arterial ring was exposed to only one combination of inhibitor and the tested compounds. Moreover, the effect of the soluble guanylyl cyclase inhibitor ODQ (1-H-(1,2,4)-oxadiazol (4,3-a)quinoxalin-1-one) on the dilator responses elicited by the compounds was examined preincubating the aortic rings with ODQ (10 μM) for 20 min.
Results are expressed as IC50 value, which is the concentration of the tested compound producing 50% of the maximum relaxation, and as Emax value which is the maximum efficacy at a concentration of 100 μM of the tested compound.
During the experimental period, the plateau obtained with NA was stable without significant spontaneous loss of contraction in the aortic rings.
Furthermore, in experiments performed in presence of ODQ (10 μM), the vasorelaxant responses to all the tested compounds were inhibited.

[2] = given orally; cited from earlier work
ACE = target: T1, ACE (Rattus norvegicus, UniProt P47820); experiment: Plasma ACE activity of treated SHR rats, spectrophotometric FAPGG hydrolysis; type: in vivo; conditions: heparinized plasma of SHR rats after single oral dose 30 mg/Kg, collected at end of experiment
T1 construct: from tissue; host or cells: heparinized plasma of orally treated SHR rats
T1 sequence (P47820 36-1238 limits assumed): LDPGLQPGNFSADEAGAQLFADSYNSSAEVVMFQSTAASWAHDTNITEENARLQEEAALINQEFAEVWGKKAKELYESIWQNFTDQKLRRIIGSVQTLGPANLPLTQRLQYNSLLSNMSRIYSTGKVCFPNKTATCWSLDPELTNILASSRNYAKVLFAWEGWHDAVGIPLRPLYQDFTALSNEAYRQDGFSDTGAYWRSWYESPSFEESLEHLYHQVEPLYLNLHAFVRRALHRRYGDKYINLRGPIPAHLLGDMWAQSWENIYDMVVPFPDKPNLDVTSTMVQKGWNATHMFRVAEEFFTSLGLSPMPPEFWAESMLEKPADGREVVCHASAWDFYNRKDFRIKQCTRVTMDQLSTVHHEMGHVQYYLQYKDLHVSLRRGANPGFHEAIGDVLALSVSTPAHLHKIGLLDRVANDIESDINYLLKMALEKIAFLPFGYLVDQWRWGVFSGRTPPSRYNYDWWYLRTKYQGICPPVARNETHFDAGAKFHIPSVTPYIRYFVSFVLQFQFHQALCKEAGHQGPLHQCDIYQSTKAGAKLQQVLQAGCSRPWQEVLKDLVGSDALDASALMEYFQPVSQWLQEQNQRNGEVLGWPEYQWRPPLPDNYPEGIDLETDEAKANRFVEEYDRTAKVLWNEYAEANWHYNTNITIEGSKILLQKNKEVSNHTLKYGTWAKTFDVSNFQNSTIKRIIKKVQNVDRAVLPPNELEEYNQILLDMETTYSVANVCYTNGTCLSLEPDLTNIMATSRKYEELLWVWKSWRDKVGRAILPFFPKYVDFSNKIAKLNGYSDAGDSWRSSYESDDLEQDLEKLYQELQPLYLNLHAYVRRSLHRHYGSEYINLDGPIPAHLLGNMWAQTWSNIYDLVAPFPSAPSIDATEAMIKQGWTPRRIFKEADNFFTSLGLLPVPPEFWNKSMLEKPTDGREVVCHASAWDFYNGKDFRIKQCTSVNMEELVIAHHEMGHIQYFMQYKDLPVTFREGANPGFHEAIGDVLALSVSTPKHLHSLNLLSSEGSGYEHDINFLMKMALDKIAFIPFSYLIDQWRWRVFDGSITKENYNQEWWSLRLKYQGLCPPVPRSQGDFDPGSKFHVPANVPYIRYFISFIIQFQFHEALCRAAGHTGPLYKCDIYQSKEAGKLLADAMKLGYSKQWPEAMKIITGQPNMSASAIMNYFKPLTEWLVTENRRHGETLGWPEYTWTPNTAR
Protocol: as §1
At the end of the experiments the blood was collected from the right carotid. The heparinized blood samples were centrifuged at 1000 g for 20 min at 4° C. The plasma was stored at −20° C. until the ACE activity measurements.
The ACE activity was determined by a spectrophotometric method (Sigma) based on the enzymatic reaction catalysed by ACE, where the FAPGG was hydrolysed to FAP.
FAPGG hydrolysis produced a decrease in the absorbance at 340 nm, a marker of ACE activity in the sample. Results, reported in table 3, were expressed as U/L in heparinized plasma.

SMILES	IC50 [1] [µM]	ACE activity (ACE) [U/L]	Arterial pressure (MAP) (SHR rats) [mmHg]	Emax [1] [%]	Relaxation of aortic rings (in words) ([1]; any of the concentrations tested, curve not different from vehicle alone)	Bioavailability [2]	Elimination route (in words) [2]	Reduction of blood pressure vs the control (SHR rats) [%]
C[C@H](CS)C(=O)N1CCC[C@H]1C(=O)O [Captopril, 1-[(2S)-3-mercapto-2-methylpropionyl]-L-proline, reference compound]	–	–	145	0	did not produce relaxation	about 75%	most of the drug is eliminated in urine	–
C[C@H](CSC(=O)OCCCCO[N+](=O)[O-])C(=O)N1CCC[C@H]1C(=O)O [Ex. 2, 1-[(2S)-3-(4-Nitrooxybutoxycarbonyl)mercapto-2-methyl-1-oxopropyl]-L-proline]	6 ± 0.87	–	–	96.9 ± 1.87	–	–	–	–
C[C@H](CSC(=O)OCO[N+](=O)[O-])C(=O)N1CCC[C@H]1C(=O)O [Ex. 3, 1-[(2S)-3-(Nitrooxymethoxycarbonyl)mercapto-2-methyl-1-oxopropyl]-L-proline]	6.7 ± 0.84	–	–	97.9 ± 1.51	–	–	–	–

Second part, led by results:

IC50 [1] [µM]	ACE activity (ACE) [U/L]	SMILES	Arterial pressure (MAP) (SHR rats) [mmHg]	Emax [1] [%]	Relaxation of aortic rings (in words) ([1]; any of the concentrations tested, curve not different from vehicle alone)	Bioavailability [2]	Elimination route (in words) [2]	Reduction of blood pressure vs the control (SHR rats) [%]
26.1 ± 3.91	59	CC(=O)SC[C@@H](C)C(=O)N1CCC[C@H]1C(=O)OCCCO[N+](=O)[O-] [Ex. 8, 1-[3-(Acetylthio)-(2S)-methyl-1-oxopropyl]-L-proline 3-nitrooxypropyl ester]	132	77.9 ± 3.21	–	–	–	35
4.01 ± 1.18	53	CC(=O)SC[C@@H](C)C(=O)N1CCC[C@H]1C(=O)Oc1cccc(CO[N+](=O)[O-])c1 [Ex. 8b, 1-[3-(acetylthio)-(2S)-methyl-1-oxopropyl]-L-proline 3-nitrooxymethylphenyl ester]	116	92.4 ± 4.15	–	–	–	43
3.2 ± 0.65	–	CC(=O)SC[C@@H](C)C(=O)N1CCC[C@H]1C(=O)N[C@H](Cc1ccccc1)C(=O)Oc1cccc(CO[N+](=O)[O-])c1 [Ex. 9, 1-[(2S)-3-(Acetylthio)-2-methyl-1-oxopropyl]-L-prolyl-L-phenylalanine 3-nitrooxymethyl phenyl ester]	–	96.8 ± 0.65	–	–	–	–
